The values that follow come from patent publication EP3995830A1, “METHOD OF PROGNOSIS OF AN INDIVIDUAL HAVING MULTIPLE MYELOMA TO BE SENSITIVE TO A TREATMENT” (Centre national de la recherche scientifique, priority 2020, dated 2022).

This assay concerns HMCLs. Nature of the assay: HMCLs response to drug treatment (IC50 at day 4, CellTiter-Glo assay). The format is cell-based, human. The note with it: classification from IC50 at day 4. The procedure: HMCLs were cultured in RPMI-1640 medium (Gibco, Thermo Fisher Scientific, Waltham, USA) supplemented with 10% fetal bovine serum (Eurobio, Les Ulis, France) and IL-6 (Peprotech, Rocky Hill, USA) for XG cell lines. The inventorsevaluated the sensitivity of HMCLs to lenalidomide and romidepsin (Selleckchem, Houston, USA). The IC50 was determined at day 4 using the CellTiter-Glo assay (Promega, Madison, USA), as previously described. The data represent the mean ± standard deviation of three independent experiments that were carried out on sextuplet culture wells (Figure 6A and 7A).
(In general: ATP-based viability assays read luminescence as a measure of living cells.)

As to `Nc1cccc2c1CN(C1CCC(=O)NC1=O)C2=O` (centres unmarked) [lenalidomide], the “sensitivity of HMCLs to lenalidomide” value was “resistant” (AMO1, JJN3, KMS-12-BM, SKMM2, XG1, XG5, XG7, XG12, XG20 and XG21 HMCLs); “sensitive” (OPM2, RPMI8226, XG2, XG6, XG13 and XG19 HMCLs).
